Like-named read-outs stand apart in the source and are kept apart here.

Data set [1] deals with T1, lactoferrin (Bos taurus, UniProt P24627). Description: Folic acid held by lactoferrin (UF membrane separation, free folic acid by optical density at 362 nm). The format is binding. The note with it: for Amount of folic acid held per 1 μmol of lactoferrin: 50 mM sodium bicarbonate pH 8.5. The protocol: A lactoferrin solution at a concentration of 1 μmol/20 ml was prepared by dissolving lactoferrin in a 50 mM sodium bicarbonate aqueous solution (pH 8.5), and folic acid was added at a concentration of 10 to 300 μmol/20 ml. The resultant admixture was treated with an ultrafiltration (UF) membrane (cut-off molecular weight: 5 kDa; a product of Millipore Corp.) to separate it into the permeate and the retentate. Further, a 50 mM sodium bicarbonate aqueous solution (pH 8.5) was added to the remaining retentate to recover the permeate. This process was repeated four times and the resulting permeate was diluted […] to recover the whole free folic acid into the permeate. The amount of binding-type folic acid remaining in the retentate was calculated from the amount of free folic acid contained in the recovered permeate obtained by measuring optical density at 362 nm. Upon measuring the optical density for folic acid, it was confirmed that no protein was eluted into the permeate and no inhibiting substance derived from proteins existed. Further, a folic acid aqueous solution without protein was simultaneously subjected to the UF membrane treatment to prepare a control sample. These operations and measurements were performed in the dark to prevent decomposition of folic acid. No decomposition of folic acid during the measurement was confirmed by the optical density measurement.

Data set [2] in a line: Stability of folic acid in citric acid buffer pH 2.5 after sterilization and storage at 37 C. The format is physicochemical. On the procedure:
Folic acid and the folic acid-lactoferrin complex used in Test Example 2 were each added to a 10 mM citric acid buffer solution (pH 2.5) at a folic acid concentration of 0.25 μmol/10 ml. Next, 50 ml portions of the solutions were dispensed in brown bottles, sterilized at 90 C for 30 minutes and then stored at 37 C. The amount of folic acid was measured in the same manner as in Test Example 2.

Data set [3] can be described thus: Light radiation test (40-watt fluorescent lamp), folic acid measured by method using microorganisms. The format is physicochemical. The note with it: phosphate buffer pH 6.5. The protocol: A light radiation test was carried out with a folic acid-lactoferrin complex. Namely, to a 1 μmol lactoferrin solution which was prepared by dissolving lactoferrin into 50 ml of a 50 mM sodium bicarbonate aqueous solution (pH 8.5) was added folic acid to make a 100 μmol solution. The resultant admixture was subjected to dialysis using a dialysis membrane (cut-off molecular weight: 10 kDa) against a 5 mM phosphate buffer solution (pH 6.5) and then to freeze-drying to obtain a folic acid-lactoferrin complex. The resulting folic acid-lactoferrin complex powder was dissolved in a 50 mM phosphoric acid buffer solution (pH 6.5) at a concentration of 3 mg/100 ml. Separately, folic acid (a product of Sigma) was dissolved in a 50 mM phosphoric acid buffer solution (pH 6.5) at a concentration of 0.8 mg/100 ml. Each sample solution (5 ml) was dispensed into a transparent polyethylene container, water was added to a depth of 5 mm, and the solution was subjected to radiation with a 40-watt fluorescent lump from a height of 30 mm, after which the amount of folic acid was measured by a method using microorganisms. Namely, the pH of the folic acid-lactoferrin complex sample was adjusted to 2.0, 2 mg of pepsin (a product of Sigma) per 1 ml sample were added, and proteolysis was carried out at 37 C for 120 minutes, after which the pH was further adjusted to 7.5, 2 mg of trypsin (a product of Sigma) per 1 ml sample were added, and proteolysis was carried out at 37 C for 120 minutes. After deaeration, the reaction solution was heated for 5 minutes and centrifuged at 15,000 G to recover the supernatant. The amount of folic acid was measured by a method using microorganisms (Davis, R. E., D. J. Nicol & A. Kelly, J. Clin. Path., vol. 23, pp. 47-53, 1970). Further, a calibration curve was obtained by using folic acid (a product of Sigma). These operations and measurements were carried out in the dark except for the fluorescent radiation.

The conditions of data set [4]: cited from earlier work.
The nature of data set [5]: Turbidity at 660 nm / solubility in deionized water. The format is physicochemical. On the procedure:
Folic acid and the folic acid-lactoferrin complex used in Test Example 2 were each added to deionized water at a folic acid concentration of 0.1 to 10 μmol/10 ml to measure turbidity at 660 nm.

Data set [6] deals with T1, lactoferrin. Description: Vitamin B12 held by lactoferrin (UF membrane separation, method using microorganisms). The note with it: for Amount of vitamin B12 held per 1 μmol of lactoferrin: imidazole buffer pH 6.5. The format is binding. The protocol: The resultant solution was treated with a UF membrane (cut-off molecular weight: 5 kDa; a product of Millipore Corp.) to separate it into the permeate and the retentate. Further, a 50 mM imidazole buffer solution (pH 6.5) was added to the remaining retentate to recover the permeate. This process was repeated four times and the resulting permeate was diluted […] to recover whole free vitamin B12 into the permeate. Further, the pH of the vitamin B12-lactoferrin complex sample in the retentate was adjusted to 2.0, 2 mg of pepsin (a product of Sigma) per 1 ml sample were added, and proteolysis was carried out at 37 C for 60 minutes, after which the pH was further adjusted to 7.5, 2 mg of trypsin (a product of Sigma) per 1 ml sample were added, and proteolysis was carried out at 37 C for 120 minutes. After heating, the supernatant was recovered by centrifugation at 15,000 G. The amount of vitamin B12 was measured by a method using microorganisms (Encyclopedia of Vitamins, the Japanese Association of Vitaminology, Asakura Shoten, p. 501, 1996). Further, a calibration curve was obtained by using cyanocobalmin (a product of Sigma).

A short description of data set [7]: Vitamin B12 reduction after sterilization at 90 C and storage at 35 C for 2 months. The format is physicochemical. To be noted: sterilized 90 C 30 min, stored 35 C 2 months. On the procedure: […] The resultant admixture was subjected to dialysis using a dialysis membrane (cut-off molecular weight: 5 kDa) against deionized water and then to freeze-drying to obtain a vitamin B12-lactoferrin complex in which 57 molecules of vitamin B12 were held per one molecule of lactoferrin. […] […] Portions (5 ml) of each sample solution were dispensed into heat-resistant glass bottles and sealed, sterilized at 90 C for 30 minutes and then stored at 35 C for 2 months. The reduction rates of vitamin B12 were measured. The amount of vitamin B12 was measured in the same manner as in Test Example 5.

[8] abbreviates: Folic acid concentration 0.1 μmol/10 ml in deionized water.
[9] abbreviates: Folic acid concentration 1.0 μmol/10 ml in deionized water.
Setting [10] is: Folic acid concentration 10 μmol/10 ml in deionized water.

T1 sequence (P24627 20-708): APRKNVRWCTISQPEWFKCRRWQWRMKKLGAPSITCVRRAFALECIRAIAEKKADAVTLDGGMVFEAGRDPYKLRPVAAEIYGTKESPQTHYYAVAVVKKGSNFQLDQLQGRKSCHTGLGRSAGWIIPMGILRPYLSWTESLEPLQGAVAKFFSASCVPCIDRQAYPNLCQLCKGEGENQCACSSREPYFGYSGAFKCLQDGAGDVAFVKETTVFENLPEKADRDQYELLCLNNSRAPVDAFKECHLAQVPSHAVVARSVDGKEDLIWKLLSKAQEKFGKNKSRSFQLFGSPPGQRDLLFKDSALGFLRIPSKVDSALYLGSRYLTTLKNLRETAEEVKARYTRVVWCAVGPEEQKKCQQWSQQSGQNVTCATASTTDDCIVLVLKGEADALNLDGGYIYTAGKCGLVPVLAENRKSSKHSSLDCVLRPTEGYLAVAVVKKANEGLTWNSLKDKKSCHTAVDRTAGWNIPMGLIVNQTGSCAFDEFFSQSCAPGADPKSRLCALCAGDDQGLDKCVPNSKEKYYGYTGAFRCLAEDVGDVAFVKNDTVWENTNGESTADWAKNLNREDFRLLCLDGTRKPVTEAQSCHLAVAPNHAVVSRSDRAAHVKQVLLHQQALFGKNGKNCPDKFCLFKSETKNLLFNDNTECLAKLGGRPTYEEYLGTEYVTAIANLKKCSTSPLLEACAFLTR

Take `Nc1nc2ncc(CNc3ccc(C(=O)N[C@@H](CCC(=O)O)C(=O)O)cc3)nc2c(=O)[nH]1` [Folic acid]: the “Amount of folic acid held per 1 μmol of lactoferrin” value worked out at 9.3 µmol on lactoferrin [1] (Folic acid added 10 μmol); 40 µmol at lactoferrin [1] (Folic acid added 50 μmol); 79 µmol on lactoferrin [1] (Folic acid added 100 μmol); 160 µmol at lactoferrin [1] (Folic acid added 200 μmol); 210 µmol at lactoferrin [1] (Folic acid added 300 μmol). Also, the “Maximal amount of folic acid incorporated” value at lactoferrin [1] (maximally) is listed as “about 200 molecules per one molecule of lactoferrin”. For the same compound, the Folic acid in data set [2] (Before heat pasteurization, citric acid buffer pH 2.5) was 0.28 μmol/10 ml; in data set [2] (Immediately after heat pasteurization (90 C, 30 min), pH 2.5), 0.18 μmol/10 ml; in data set [2] (Stored for 2 months at 37 C, pH 2.5), 0.05 μmol/10 ml; in data set [2] (Stored for 4 months at 37 C, pH 2.5) it was 0.01 μmol/10 ml; in data set [3] (Radiation time 0 min), 0.16 μmol/10 ml; in data set [3] (Radiation time 0.5 min) it was 0.13 μmol/10 ml. Moreover, the Folic acid in data set [3] (Radiation time 7 min) is 0.03 μmol/10 ml. In addition, the Folic acid lost result in data set [4] (cow's milk, heat sterilization or during storage) is given as “about 60%”; in data set [4] (powdered milk), 25%. Besides, the figures for the Appearance of solution result in data set [5] (setting [8]), in data set [5] (setting [9]) and in data set [5] (setting [10]) were “Slightly turbid”, “Insoluble” and “Insoluble”, respectively. Moreover, the “Turbidity at 660 nm” value in data set [5] (setting [8]) worked out at 0.01; in data set [5] (setting [9]), 0.025; in data set [5] (setting [10]), 0.034. The “Solubility of folic acid in deionized water” value in data set [5] (deionized water) is given as “less than 0.1 μmol/10 ml”.
For Vitamin B12, the “Amount of vitamin B12 held per 1 μmol of lactoferrin” value at lactoferrin [6] (Vitamin B12 added 10 μmol) is 4.2 µmol; on lactoferrin [6] (Vitamin B12 added 100 μmol), 41 µmol; on lactoferrin [6] (Vitamin B12 added 500 μmol), 130 µmol. For the same compound, on lactoferrin [6] (maximally), the “Maximal amount of vitamin B12 carried” value is “about 100 molecules per one molecule of lactoferrin”. Moreover, the “Vitamin B12 reduction rate” value in data set [7] (pH 3.0) was 48%; in data set [7] (pH 7.5) it was 8%.
